Source: publication PMC10111423, “Antimalarial Imidazopyridines Incorporating an Intramolecular Hydrogen Bonding Motif: Medicinal Chemistry and Mechanistic Studies” (ACS Infectious Diseases, 2023)

Columns and labels:
β-hematin = assay: β-Hematin inhibition assay (BHIA), cell-free NP-40 mediated; assay type: biochemical; details: mean of n = 3
Procedure: page 20: fold to attain six assay concentrations of 100-0.001 μg/mL. […] was used as the reference compound in this assay. The highest concentration of DMSO, which was used as the negative control, had no measurable effect on cell viability. After 44 hours of exposure of the cells to the test compounds, a solution of MTT was added. This was followed by an additional 4 hours of incubation at 37 °C. The assay plates were centrifuged, medium removed, and DMSO was added to the crystals. The amount of formazan was ascertained by measuring the absorbance at 540 nm. GraphPad Prism software was then used to generate IC50 values through a non-linear dose-response curve analysis. β-Hematin Inhibition Assay 20 mM stock solutions of controls and test compounds were made in DMSO. A solution […] was added to every well in columns 1-11 of a 96-well plate. 140 μL of water and 40 μL of 305.5 μM NP-40 were added to column 12 to mediate the formation of beta-hematin. 20 μL of test compounds (20 mM) were added to column 12 and 100 μL of this solution serially diluted to column 2, leaving column 1 blank (0 μM of test compound). 178.8 μL aliquot of hematin stock was suspended in 20 ml of a 1 M acetate buffer at pH 4.9. 100 μL of this hematin […] pH 7.4 and 50% pyridine) and 60 μL of acetone were added to all wells. The absorbances of plate wells were recorded at 405 nm on a SpectraMax plate reader. Sigmoidal dose-response curves with variable slopes were fitted to the absorbance data using GraphPad Prism to obtain the IC50 values for each compound. In vitro Microsomal Stability Assay The in vitro microsomal stability assay was performed in duplicate in a 96-well micro titre […] individually in human (pool of 50, mixed gender), rat (pool of 711, male Sprague Dawley) and mouse (pool of 1634, male CD1) liver microsomes (final protein concentration of 0.4 mg/mL; Xenotech, Kansas, USA), suspended in 0.1M phosphate buffer (pH 7.4). Incubations were S20

[1] = system: multidrug-resistant (K1) strain of P. falciparum; assay: In vitro asexual blood-stage antiplasmodium pLDH assay, K1 strain; assay type: cell-based; details: Plasmodium falciparum, 72 h, n ≥ 3, read-out: In vitro antiplasmodium activity IC50 PfK1 strain
Procedure: Compounds were screened against multi-drug-resistant (K1) and sensitive (NF54) strains of P. falciparum in vitro using a parasite lactate dehydrogenase assay (pLDH) (the method is described fully in the Supporting Information). […]
In vitro Asexual Blood Stage Antiplasmodium Assay
Parasites were cultured as per the method of Trager and Jensen,1 with modifications. IC50 values were determined using parasite lactate dehydrogenase as a marker for survival (Makler […]
et al, 1993). The test samples were prepared to a 10 mmol/L stock solution in 100% DMSO.
Samples were tested as a suspension if not completely dissolved. Further dilutions to the desired starting concentration were freshly prepared in growth media on each occasion of the experiment. The standard antimalarial drugs chloroquine (CQ) and artesunate (Arts) were used as the reference drug in all experiments. A full dose-response was performed for all compounds in a 96-well plate to determine the concentration inhibiting 50% of parasite growth (IC50– value). Test samples were tested at a starting concentration of 6mmol/L, which was then serially diluted 2-fold in growth medium to generate the tested concentration range. The same dilution technique was used for all samples. CQ and Arts were tested from a starting concentration of 1µg/mL. The highest concentration of solvent to which the parasites were exposed was <0.1% and has no measurable effect on the parasite viability (data not shown).
The assay plate was incubated at 37 °C for 72h in a sealed gas chamber under 3% O2 and 4% CO2 with the balance being N2. After 72h, the wells in the assay plate were gently resuspended, and 15µL from each well was transferred to a duplicate plate containing 100µL of Malstat reagent and 25µL of nitroblue tetrazolium solution in each well. Plates were left to develop for 20 minutes in the dark and then absorbance of each well was quantified using a spectrophotometer at 620nm wavelength.
The remaining population of parasites at each concentration of the test compound was determined by comparing the absorbance of each well to the absorbance of a well containing […]
the drug-free control. […]
The initial 100 µg/mL solution is serially diluted 10-

Row | IC50 (β-hematin) [µM] | IC50 [1] [µM] | Structure (SMILES)
1 | 16 | 0.48 | CCN(CCNc1cc2[nH]c(C3CC3)nc2cn1)Cc1ccc(Cl)cc1O [Compound 5, 5-Chloro-2-(((2-((2-cyclopropyl-1H-imidazo[4,5-c]pyridin-6-yl)amino)ethyl)(ethyl)amino)methyl)phenol]
2 | 33 | 6 | CCN(CCNc1cc2[nH]c(C3(C)CC3)nc2cn1)Cc1ccc(Cl)cc1O [Compound 6, 5-Chloro-2-((ethyl(2-((2-(1-methylcyclopropyl)-1H-imidazo[4,5-c]pyridin-6-yl)amino)ethyl)amino)methyl)phenol]
3 | 9 | 0.1 | CCN(CCNc1cc2[nH]c(-c3cccc(C(F)(F)F)c3)nc2cn1)Cc1ccc(Cl)cc1O [Compound 14, 5-Chloro-2-((ethyl(2-((2-(3-(trifluoromethyl)phenyl)-1H-imidazo[4,5-c]pyridin-6-yl)amino)ethyl)amino)methyl)phenol]
4 | 18 | 1.35 | CCN(CCNc1cc2[nH]c(C3CCCC3)nc2cn1)Cc1ccc(Cl)cc1O [Compound 1, 5-Chloro-2-(((2-((2-cyclopentyl-1H-imidazo[4,5-c]pyridin-6-yl)amino)ethyl)(ethyl)amino)methyl)phenol]
5 | 65 | 0.36 | CCN(CCNc1cc2[nH]c(-c3ccc(C(F)(F)F)nc3)nc2cn1)Cc1ccc(Cl)cc1O [Compound 19, 5-Chloro-2-((ethyl(2-((2-(6-(trifluoromethyl)pyridin-3-yl)-1H-imidazo[4,5-c]pyridin-6-yl)amino)ethyl)amino)methyl)phenol]
